The text below walks through data of US10370366B2 (Flatley Discovery Lab, LLC, priority 2013, dated 2019).

The structures appear in SMILES notation.

This experiment concerns the target T1, human F508del CFTR (Homo sapiens, UniProt P13569, DEL508-508).
T1 construct: expressed in transfected cells; host or cells: Fisher Rat Thyroid (FRT) cells
Kind of experiment: CFTR-YFP High Throughput Assay. It counts as cell-based. Conditions: FRT cells expressing human F508del CFTR and YFP; for Emax: EMax normalized to the positive control, read-out: % Efficacy. How it is done: Assays for Detecting and Measuring the Effect of Compounds on F508del-CFTR Channels CFTR-YFP High Throughput Assay-CFTR Corrector Protocol:
This protocol is designed to selectively screen small molecule compounds for F508del CFTR corrector activities in the HTS YFP (yellow fluorescent protein) flux assay. In this protocol, the cells are incubated with testing compounds for 24 hours, washed with PBS, stimulated with forskolin and a standard potentiator, and fluorescence in each plate well is measured kinetically read on a 384-well HTS plate reader, such as the Hamamatsu FDSS-6000.
YFP fluorescence intensity values are acquired at high speed before and after iodide buffer is injected to the assay cells. Iodide enters the cells via active CFTR channels in the plasma membrane, and quenches the YFP fluorescence. The rate of fluorescence quenching is proportionate to the total CFTR activity in the cell membrane. F508del CFTR correctors increase the number of CFTR molecules in the testing cell plasma membrane, and thereby accelerate YFP quenching.
This method was initially developed for bench top plate readers (Galietta et al., 2001), and was adapted to the HTS format (Sui et al. Assay Drug Dev. Technol. 2010).
Fisher Rat Thyroid (FRT) cells stably expressing both human F508del CFTR and a halide-sensitive yellow fluorescent protein (YFP-H148Q/I152L 25,22) (Galietta et al. Am. J. Physiol Cell Physiol 281(5), C1734, 2001) were cultured on plastic surface in Coon's modified Ham's F12 medium supplemented with FBS 10%, L-glutamine 2 mM, penicillin 100 U/ml, and streptomycin 100 µg/ml. G418 (0.75-1.0 mg/ml) and zeocin (3.2 ug/ml) were used for selection of FRT cells expressing F508del CFTR and YFP. For primary screening, FRT cells were plated into 384-well black wall, transparent bottom microtiter plates (Costar; Corning Inc.) at a cell density of 20,000-40,000 per well. Test compound was applied to the cells at varying concentrations ranging from 2 nM-40 μM in either a 2-fold or 3-fold dilution series. Cells were incubated in a cell culture incubator at 37° C. with 5% CO2 for 24-26 h. Assay plates were washed with DPBS media (Thermo, cat# SH30028.02) to remove unbound cells and compound. Stimulation media (25 μL) containing 20 μM Forskolin & 30 μM P3 [6-(Ethyl-phenyl-sulfonyl)-4-oxo-1,4-dihydro-quinoline-3-carboxylic acid 2-methoxy-benzylamide] in Hams F-12 coon's modified media was added to the plate wells and incubated at room temperature for 60-120 min. […] (10 mM HEPES, 1 mM MgCl2, 3 mM KCl, 1 mM CaCl2, 150 mM NaI) was then added and fluorescence quench curves (Excitation 500 nm/Emission 540 nm; exposure 136 ms) were immediately recorded on an FDSS-6000 plate reader (Hamamatsu). Quench rates were derived from least squares fitting of the data as described by Sui et al (2010).
CFTR-YFP High Throughput Assay-CFTR Potentiator Protocol:
This protocol is designed to selectively screen small molecule compounds for F508del CFTR potentiator activities in the HTS YFP flux assay. Such compounds act acutely to stimulate CFTR already expressed on the membrane surface. In this protocol, the cells are incubated at 27° C. for 24 hours to homogeneously boost F508del CFTR expression in the cell membrane (low temperature correction), washed with PBS, treated with test compound, and CFTR activity is stimulated with forskolin for 1-2 hr. Measurement of ion flux is initiated by addition of iodide-containing buffer, and YFP quenching is kinetically recorded using a 384-well HTS plate reader, such as the Hamamatsu FDSS-6000.
YFP fluorescence intensity values are acquired at high speed over a 1 min time course before and after iodide buffer is injected to the assay cells. Iodide enters the cells via active CFTR channels in the plasma membrane, and quenches the YFP fluorescence. The rate of fluorescence quenching is proportionate to total CFTR activity in the cell membrane. […]

T1 sequence (P13569 with tags, fused parts or gaps DEL508-508): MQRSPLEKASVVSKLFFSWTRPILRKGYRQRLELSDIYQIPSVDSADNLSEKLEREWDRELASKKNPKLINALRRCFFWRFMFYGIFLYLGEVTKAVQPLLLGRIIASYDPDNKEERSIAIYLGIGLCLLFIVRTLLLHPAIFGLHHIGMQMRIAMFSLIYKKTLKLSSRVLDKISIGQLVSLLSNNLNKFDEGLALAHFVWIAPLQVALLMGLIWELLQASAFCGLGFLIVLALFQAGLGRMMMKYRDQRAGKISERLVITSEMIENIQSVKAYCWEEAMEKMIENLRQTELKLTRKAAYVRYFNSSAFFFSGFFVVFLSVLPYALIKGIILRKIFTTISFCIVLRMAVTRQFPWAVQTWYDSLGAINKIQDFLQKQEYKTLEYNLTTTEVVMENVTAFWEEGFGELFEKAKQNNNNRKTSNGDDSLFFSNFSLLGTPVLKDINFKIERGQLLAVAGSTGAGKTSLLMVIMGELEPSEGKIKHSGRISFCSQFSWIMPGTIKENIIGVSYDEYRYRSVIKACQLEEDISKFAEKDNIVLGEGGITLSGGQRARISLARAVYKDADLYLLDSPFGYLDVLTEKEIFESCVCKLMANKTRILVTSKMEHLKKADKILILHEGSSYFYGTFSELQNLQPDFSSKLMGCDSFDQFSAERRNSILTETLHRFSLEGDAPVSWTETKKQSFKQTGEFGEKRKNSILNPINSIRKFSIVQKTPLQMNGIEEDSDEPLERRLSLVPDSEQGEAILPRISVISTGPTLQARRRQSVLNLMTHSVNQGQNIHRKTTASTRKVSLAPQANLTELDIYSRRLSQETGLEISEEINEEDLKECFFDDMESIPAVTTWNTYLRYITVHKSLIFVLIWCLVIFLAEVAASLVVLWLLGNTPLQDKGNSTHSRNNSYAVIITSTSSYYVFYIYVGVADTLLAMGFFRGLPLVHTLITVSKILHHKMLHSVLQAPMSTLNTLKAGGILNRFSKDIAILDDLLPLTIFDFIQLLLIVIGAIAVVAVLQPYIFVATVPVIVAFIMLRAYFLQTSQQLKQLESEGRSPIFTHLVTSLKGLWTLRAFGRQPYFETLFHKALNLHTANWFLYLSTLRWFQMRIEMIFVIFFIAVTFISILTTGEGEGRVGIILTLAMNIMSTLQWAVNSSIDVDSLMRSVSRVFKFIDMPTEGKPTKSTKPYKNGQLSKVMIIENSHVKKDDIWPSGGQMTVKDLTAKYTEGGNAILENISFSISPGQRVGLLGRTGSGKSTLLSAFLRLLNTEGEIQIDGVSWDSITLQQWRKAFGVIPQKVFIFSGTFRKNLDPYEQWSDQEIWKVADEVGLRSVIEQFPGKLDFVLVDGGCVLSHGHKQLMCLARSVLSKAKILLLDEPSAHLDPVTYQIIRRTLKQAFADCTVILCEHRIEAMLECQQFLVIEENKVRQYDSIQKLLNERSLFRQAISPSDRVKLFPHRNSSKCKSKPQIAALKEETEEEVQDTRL

On to `CCN(C(=O)Cn1nc(Cc2cccnc2)c2cc(C(C)(C)C)ccc2c1=O)c1ccc2c(c1)OC(F)(F)O2` [Example 49, 2-(6-(tert-butyl)-1-oxo-4-(pyridin-3-ylmethyl)phthalazin-2(1H)-yl)-N-(2,2-difluorobenzo[d][1,3]dioxol-5-yl)-N-ethylacetamide], for which the Emax was greater than 80%.

In the case of `CCN(C(=O)Cn1nc(Cc2cccnc2)c2ccc(C(C)(C)C)cc2c1=O)c1ccc2c(c1)OC(F)(F)O2` [Example 50, 2-(7-(tert-butyl)-1-oxo-4-(pyridin-3-ylmethyl)phthalazin-2(1H)-yl)-N-(2,2-difluorobenzo[d][1,3]dioxol-5-yl)-N-ethylacetamide], the Emax is greater than 80%.

On to `CCN(C(=O)Cn1nc(Cc2cccnc2)c2cc(OC)ccc2c1=O)c1ccc2c(c1)OC(F)(F)O2` [Example 51, N-(2,2-difluorobenzo[d][1,3]dioxol-5-yl)-N-ethyl-2-(6-methoxy-1-oxo-4-(pyridin-3-ylmethyl)phthalazin-2(1H)-yl)acetamide], for which the Emax lay within 30 to 80%.

On to `CCN(C(=O)Cn1nc(Cc2cccnc2)c2ccc(OC)cc2c1=O)c1ccc2c(c1)OC(F)(F)O2` [Example 52, N-(2,2-difluorobenzo[d][1,3]dioxol-5-yl)-N-ethyl-2-(7-methoxy-1-oxo-4-(pyridin-3-ylmethyl)phthalazin-2(1H)-yl)acetamide], for which the Emax lay within 30 to 80%.

Take `CCN(C(=O)Cn1nc(Cc2cccnc2)c2cc(Cl)ccc2c1=O)c1ccc2c(c1)OC(F)(F)O2` [Example 53, 2-(6-chloro-1-oxo-4-(pyridin-3-ylmethyl)phthalazin-2(1H)-yl)-N-(2,2-difluorobenzo[d][1,3]dioxol-5-yl)-N-ethylacetamide]: the Emax lay within 30 to 80%.

Consider `CCN(C(=O)Cn1nc(Cc2cccnc2)c2ccc(Cl)cc2c1=O)c1ccc2c(c1)OC(F)(F)O2` [Example 54, 2-(7-chloro-1-oxo-4-(pyridin-3-ylmethyl)phthalazin-2(1H)-yl)-N-(2,2-difluorobenzo[d][1,3]dioxol-5-yl)-N-ethylacetamide], for which the Emax is 30 to 80%.

Regarding `CCN(C(=O)Cn1nc(Cc2cccnc2)c2cccc(OC)c2c1=O)c1ccc2c(c1)OC(F)(F)O2` [Example 55, N-(2,2-difluorobenzo[d][1,3]dioxol-5-yl)-N-ethyl-2-(8-methoxy-1-oxo-4-(pyridin-3-ylmethyl)phthalazin-2(1H)-yl)acetamide], the Emax fell in the range of 30 to 80%.

`CCN(C(=O)Cn1nc(Cc2cccnc2)c2c(OC)cccc2c1=O)c1ccc2c(c1)OC(F)(F)O2` [Example 56, N-(2,2-difluorobenzo[d][1,3]dioxol-5-yl)-N-ethyl-2-(5-methoxy-1-oxo-4-(pyridin-3-ylmethyl)phthalazin-2(1H)-yl)acetamide]: the Emax lay within 30 to 80%.

On to `CCOc1cccc2c(Cc3cccnc3)nn(CC(=O)N(CC)c3ccc4c(c3)OC(F)(F)O4)c(=O)c12` [Example 57, N-(2,2-difluorobenzo[d][1,3]dioxol-5-yl)-N-ethyl-2-(8-ethoxy-1-oxo-4-(pyridin-3-ylmethyl)phthalazin-2(1H)-yl)acetamide], for which the Emax is 30 to 80%.

As for `CCOc1cccc2c(=O)n(CC(=O)N(CC)c3ccc4c(c3)OC(F)(F)O4)nc(Cc3cccnc3)c12` [Example 58, N-(2,2-difluorobenzo[d][1,3]dioxol-5-yl)-N-ethyl-2-(5-ethoxy-1-oxo-4-(pyridin-3-ylmethyl)phthalazin-2(1H)-yl)acetamide], the Emax was 30 to 80% and the EC50 was less than 10 µM.

For `CCN(C(=O)Cn1nc(Cc2cccnc2)c2cccc(OC3CCCCC3)c2c1=O)c1ccc2c(c1)OC(F)(F)O2` [Example 59, 2-(8-(cyclohexyloxy)-1-oxo-4-(pyridin-3-ylmethyl)phthalazin-2(1H)-yl)-N-(2,2-difluorobenzo[d][1,3]dioxol-5-yl)-N-ethylacetamide], the Emax lay within 30 to 80% and the EC50 was 10 to 20 µM.

Regarding `CCN(C(=O)Cn1nc(Cc2cccnc2)c2c(OC3CCCCC3)cccc2c1=O)c1ccc2c(c1)OC(F)(F)O2` [Example 60, 2-(5-(cyclohexyloxy)-1-oxo-4-(pyridin-3-ylmethyl)phthalazin-2(1H)-yl)-N-(2,2-difluorobenzo[d][1,3]dioxol-5-yl)-N-ethylacetamide], the Emax lay within 30 to 80%.

For the compound `CCN(C(=O)Cn1nc(Cc2cccnc2)c2cccc(OCCOC)c2c1=O)c1ccc2c(c1)OC(F)(F)O2` [Example 61, N-(2,2-difluorobenzo[d][1,3]dioxol-5-yl)-N-ethyl-2-(8-(2-methoxyethoxy)-1-oxo-4-(pyridin-3-ylmethyl)phthalazin-2(1H)-yl)acetamide], the Emax lay within 30 to 80%.

As to `CCN(C(=O)Cn1nc(Cc2cccnc2)c2c(OCCOC)cccc2c1=O)c1ccc2c(c1)OC(F)(F)O2` [Example 62, N-(2,2-difluorobenzo[d][1,3]dioxol-5-yl)-N-ethyl-2-(5-(2-methoxyethoxy)-1-oxo-4-(pyridin-3-ylmethyl)phthalazin-2(1H)-yl)acetamide], the Emax lay within 30 to 80%.

Consider `CCOC(=O)c1ccc2c(-c3cccc(Cl)c3)nn(CC(=O)N(C)c3ccc4nc(C)oc4c3)c(=O)c2c1` [Example 65, ethyl 1-(3-chlorophenyl)-3-(2-(methyl(2-methylbenzo[d]oxazol-6-yl)amino)-2-oxoethyl)-4-oxo-3,4-dihydrophthalazine-6-carboxylate], for which the Emax is greater than 80% and the EC50 was less than 10 µM.

Regarding `CCOC(=O)c1ccc2c(=O)n(CC(=O)N(C)c3ccc4nc(C)oc4c3)nc(-c3cccc(Cl)c3)c2c1` [Example 66, ethyl 1-(3-chlorophenyl)-3-(2-(methyl(2-methylbenzo[d]oxazol-6-yl)amino)-2-oxoethyl)-4-oxo-3,4-dihydrophthalazine-7-carboxylate], the Emax was greater than 80% and the EC50 is less than 10 µM.

For `CCOC(=O)c1ccc2c(-c3cccc(F)c3)nn(CC(=O)N(C)c3ccc4nc(C)oc4c3)c(=O)c2c1` [Example 67, ethyl 1-(3-fluorophenyl)-3-(2-(methyl(2-methyl-benzo[d]oxazol-6-yl)amino)-2-oxoethyl)-4-oxo-3,4-dihydrophthalazine-6-carboxylate], the Emax was 30 to 80% and the EC50 was less than 10 µM.

As for `CCOC(=O)c1ccc2c(=O)n(CC(=O)N(C)c3ccc4nc(C)oc4c3)nc(-c3cccc(F)c3)c2c1` [Example 68, ethyl 4-(3-fluorophenyl)-2-(2-(methyl(2-methyl-benzo[d]oxazol-6-yl)amino)-2-oxoethyl)-1-oxo-1,2-dihydrophthalazine-6-carboxylate], the Emax was in the range of 30 to 80% and the EC50 was less than 10 µM.

With `COc1ccc2c(-c3cccc(C#N)c3)nn(CC(=O)N(C)c3ccc4c(c3)OC(F)(F)O4)c(=O)c2c1` [Example 69, 2-(4-(3-cyanophenyl)-7-methoxy-1-oxophthalazin-2(1H)-yl)-N-(2,2-difluorobenzo[d][1, 3]dioxol-5-yl)-N-methylacetamide], the Emax was greater than 80%.

As to `COc1ccc2c(-c3ccc(S(N)(=O)=O)cc3)nn(CC(=O)N(C)c3ccc4c(c3)OC(F)(F)O4)c(=O)c2c1` [Example 71, N-(2,2-difluorobenzo[d][1,3]dioxol-5-yl)-2-(7-methoxy-1-oxo-4-(4-sulfamoylphenyl)phthalazin-2(1H)-yl)-N-methylacetamide], the Emax lay in the range of 30 to 80%.

In the case of `CCN(C(=O)Cn1nc(-c2ccc(S(N)(=O)=O)cc2)c2ccc(OC)cc2c1=O)c1ccc2c(c1)OC(F)(F)O2` [Example 72, N-(2,2-difluorobenzo[d][1,3]dioxol-5-yl)-N-ethyl-2-(7-methoxy-1-oxo-4-(4-sulfamoylphenyl)phthalazin-2(1H)-yl)-acetamide], the Emax was greater than 80%.

One may read the EC50 as the midpoint of the concentration-response curve.
